Source: US20030086974A1, “Odour regulation in hygiene products” (priority 2001, published 2003)

Tests used:
Assay type in all cases: physicochemical
[1] = Toluene inclusion (precipitation of the cyclodextrin-toluene complex); settings: 100 mg of sample dissolved in water, 20 μl toluene added to notice precipitation
Procedure: From 4.7 g β-cyclodextrin (dry), an oxidised cyclodextrin was prepared as described in Example 1, using 10 ml 2.0 M NaOCl solution, 150 mg NaBr and 80 mg 4-acetamido-TEMPO. The ratio acid/aldehyde was derived from the sodium hydroxide consumption and also experimentally determined. According to calculation, 6.3 mmol acid and 6.9 mmol aldehyde were produced. […] The reaction mixture was concentrated in vacuum to about 120 ml. […] Precipitation of the oxidised cyclodextrin-toluene complex started slowly i.e. after 10 minutes it was visible that a precipitate was formed. After 5 hours the process of precipitation formation seemed to be finished.
The same experiment was repeated with an acidified solution (pH 3). Here precipitation started immediately after mixing. The process was complete within one hour.
From 4.7 g β-cyclodextrin (dry) an oxidised cyclodextrin was prepared as described in Example 1, using 5 ml 2.0 M NaOCl solution, 150 mg NaBr and 4-acetamido-TEMPO. The ratio acid/aldehyde was derived from the sodium hydroxide consumption and also experimentally determined. According to calculation 2.2 mmol acid and 5.7 mmol aldehyde were produced. […] The reaction mixture was concentrated in vacuum to about 120 ml. […] Precipitation of the oxidised cyclodextrin-toluene complex started immediately and after one hour the process of precipitation formation appeared to be finished.

[2] = Menthone inclusion (precipitation of the complex); settings: 100 mg of sample dissolved in water, 20 μl menthone added to notice precipitation
[3] = Adsorption of phenolphthalein by oxidised β-cyclodextrin (absorption at 553 nm); settings: sample 1 mg/ml in sodium carbonate buffer pH 10.3 mixed with 10 μl 0.1% phenolphthalein in ethanol
Procedure: Five grams of β-cyclodextrin (CAVAMAX® W7 from Wacker-CHEMIE GMBH) on dry weight basis was dissolved in 300 ml of demi-water, and 22.4 ml of a 0.032 M 4-acetamido TEMPO solution was; added. Subsequently, β-cyclodextrin was oxidised by addition of sodium hypochlorite. Batches were prepared with theoretically one, two and three anhydroglucose units fully oxidised per cyclodextrin molecule (average) per β-cyclodextrin molecule using sodium hypochlorite. The pH was kept constant during reaction by addition of 0.5 M NaOH, controlled by a pH stat (Metrohm). After completion of the oxidation, the aldehyde groups were reduced with sodium borohydride. The respective batches were concentrated in a rotary evaporator, and subsequently freeze-dried. The freeze-dried material was washed in a methanol/water mixture to remove salts and 4-acetamido-TEMPO. The batches were finally washed with acetone and dried in an oven at 50° C. The inclusion properties were investigated (see Table 1).

In the case of `OC[C@H]1O[C@@H]2O[C@H]3[C@H](O)[C@@H](O)[C@@H](O[C@H]4[C@H](O)[C@@H](O)[C@@H](O[C@H]5[C@H](O)[C@@H](O)[C@@H](O[C@H]6[C@H](O)[C@@H](O)[C@@H](O[C@H]7[C@H](O)[C@@H](O)[C@@H](O[C@H]8[C@H](O)[C@@H](O)[C@@H](O[C@H]1[C@H](O)[C@H]2O)O[C@@H]8CO)O[C@@H]7CO)O[C@@H]6CO)O[C@@H]5CO)O[C@@H]4CO)O[C@@H]3CO` [Example 0, β-cyclodextrin], the Toluene inclusion ([1]; Table 1) is reported as “Yes”, the Toluene inclusion ([1]; Table 2) is reported as “Yes” and the Menthone inclusion ([2]; Table 1) is reported as “Yes”. The Menthone inclusion ([2]; Table 2) was “Yes”, the “Phenolphthalein Absorption (at γ = 553 nm)” value ([3]; Table 1) was 0.025 and the “Phenolphthalein Absorption (at γ = 553 nm)” value ([3]; Table 2, solution without cyclodextrin Abs. = 0.65) was 0.025.
